Molecules are shown by their SMILES. Where two headings read alike, the source gives them in different places.

In assay [1] the test system is MES SA (uterine sarcoma cell line). As to the kind of experiment: In vitro cytotoxicity assay (CellTiter-Glo, 72 hours), MES SA. The format is cell-based. On the technique in general: In ATP-based viability assays light output follows the ATP content of the culture.
Assay [2] has as its system HEK 293T (human embryonic kidney cancer cell line). The assay can be described thus: In vitro cytotoxicity assay (CellTiter-Glo, 72 hours), HEK 293T. Format: cell-based.
Assay [3] has as its system MES SA DX (MES SA cell line with marked multi-drug resistance). As to the kind of experiment: In vitro cytotoxicity assay (CellTiter-Glo, 72 hours), MES SA DX.
Where [4] appears, read: Homo sapiens, MES-SA, 72 h, read-out: MES SA, IC50.
The mark [5] stands for this setting: Homo sapiens, MES-SA, 72 h, read-out: MES SA, IC50 Value in nM.
The mark [6] stands for this setting: Homo sapiens, HEK-293T, 72 h, read-out: HEK 293T, IC50.
Where [7] appears, read: Homo sapiens, HEK-293T, 72 h, read-out: HEK 293T, IC50 Value in nM.
The mark [8] stands for this setting: Homo sapiens, MES-SA, 72 h, read-out: MES SA DX, IC50.
Setting [9] is: Homo sapiens, MES-SA, 72 h, read-out: MES SA DX, IC50 Value in nM.

As usually defined, the IC50 is the concentration that inhibits the measured activity by half. For the molecule `COC(=O)[C@@H](C)C[C@H](Cc1ccccc1)NC(=O)c1cccc([C@@H](C[C@H](C(C)C)N(C)C(=O)[C@@H](NC(=O)[C@H]2CCCCN2C)C(C)C)OC(C)=O)n1` [Tb64, Methyl (2S,4R)-4-[({6-[(1R,3R)-1-acetoxy-4-methyl-3-{methyl[(2S)-3-methyl-2-({[(2R)-1-methyl-piperidin-2-yl]carbonyl}amino)butanoyl]amino}pentyl]pyridin-2-yl}carbonyl)amino]-2-methyl-5-phenylpentanoate], the IC50 in assay [1] (setting [4]) came to 0.22 nM; in assay [1] (setting [5]), 0.22 nM; in assay [2] (setting [6]), 0.1 nM; in assay [2] (setting [7]), 0.1 nM; in assay [3] (setting [8]), 109 nM; in assay [3] (setting [9]) it was 109 nM.
`COC(=O)[C@@H](C)C[C@H](Cc1ccccc1)NC(=O)c1csc([C@@H](C[C@H](C(C)C)N(C)C(=O)[C@@H](NC(=O)[C@H]2CCCCN2C)C(C(F)(F)F)C(F)(F)F)OC(C)=O)n1` [Tb79, Methyl (2S,4R)-4-[({2-[(1R,3R)-1-acetoxy-4-methyl-3-{methyl[(2S)-4,4,4-trifluoro-2-({[(2R)-1-meth-ylpiperidin-2-yl]carbonyl}amino)-3-(trifluoromethyl)butanoyl]amino}pentyl]-1,3-thiazol-4-yl}carbonyl)amino]-2-methyl-5-phenylpentanoate]: the results for the 50% inhibitory concentration (IC50) in assay [1] (setting [5]), in assay [2] (setting [7]) and in assay [3] (setting [9]) were 39.1 nM, 36.4 nM and over 1000 nM, respectively.
On to `COC(=O)[C@@H](C)C[C@H](Cc1ccccc1)NC(=O)c1csc([C@@H](C[C@H](C(C)C)N(C)C(=O)[C@H](C)NC(=O)[C@H]2CCCN2C)OC(C)=O)n1` [Tb90, Methyl (2S,4R)-4-[({2-[(1R,3R)-1-acetoxy-4-methyl-3-{methyl[(2S)-2-({[(2R)-1-methylpyrrolidin-2-yl]carbonyl}amino)propanoyl]amino}pentyl]-1,3-thiazol-4-yl}carbonyl)amino]-2-methyl-5-phenylpentanoate], for which the IC50 in assay [1] (setting [5]) was over 1000 nM; in assay [2] (setting [7]), 636 nM; in assay [3] (setting [9]), over 1000 nM.
Turning to `COC(=O)CC12CC(NC(=O)c3csc([C@@H](C[C@H](C(C)C)N(C)C(=O)[C@@H](NC(=O)[C@H]4CCCCN4C)C(C)C)OC(C)=O)n3)(C1)C2` [Tb103, Methyl (3-{[(2-{1-acetoxy-4-methyl-3-[methyl(3-methyl-2-{[(1-methylpiperidin-2-yl)carbonyl]amino}-butanoyl)amino]pentyl}-1,3-thiazol-4-yl)carbonyl]amino}bicyclo[11.1.]pent-1-yl)acetate], the IC50 in assay [1] (setting [5]) amounted to 2.74 nM; in assay [2] (setting [7]), 1.79 nM; in assay [3] (setting [9]) it was 22.6 nM.
Take `CC(=O)O[C@H](C[C@H](C(C)C)N(C)C(=O)[C@H](C)NC(=O)[C@H]1CCCN1C)c1nc(C(=O)N[C@@H](Cc2ccccc2)C[C@H](C)C(=O)O)cs1` [Tb92, (2S,4R)-4-[({2-[(1R,3R)-1-Acetoxy-4-methyl-3-{methyl[(2S)-2-({[(2R)-1-methylpyrrolidin-2-yl]car-bonyl}amino)propanoyl]amino}pentyl]-1,3-thiazol-4-yl}carbonyl)amino]-2-methyl-5-phenylpentanoic acid]: the 50% inhibitory concentration (IC50) in assay [1] (setting [5]), in assay [2] (setting [7]) and in assay [3] (setting [9]) was over 1000 nM each time.
As to `COC(=O)[C@@H](C)C[C@H](Cc1ccccc1)NC(=O)c1csc([C@H](O)C[C@H](C(C)C)N(C)C(=O)[C@@H](NC(=O)[C@H]2CCCCN2C)C(C(F)(F)F)C(F)(F)F)n1` [Tb80, Methyl (2S,4R)-4-[({2-[(1R,3R)-1-hydroxy-4-methyl-3-{methyl[(2S)-4,4,4-trifluoro-2-({[(2R)-1-methylpiperidin-2-yl]carbonyl}amino)-3-(trifluoromethyl)butanoyl]amino}pentyl]-1,3-thiazol-4-yl}-carbonyl)amino]-2-methyl-5-phenylpentanoate], the IC50 in assay [1] (setting [5]), in assay [2] (setting [7]) and in assay [3] (setting [9]) was over 1000 nM in each case.
On to `COC(=O)[C@@H](C)C[C@H](Cc1ccccc1)NC(=O)c1csc([C@@H](C[C@H](C(C)C)N(C)C(=O)[C@@H](NC(=O)[C@H]2CCCCN2C)C(C)C)OC(C)=O)n1` [Tb32, reference compound], for which the IC50 in assay [1] (Table 2, 72 hours, CellTiter-Glo, read-out: MES SA, IC50 Value in nM) is 0.012 nM; in assay [2] (Table 2, 72 hours, CellTiter-Glo, read-out: HEK 293T, IC50 Value in nM) it was 0.002 nM; in assay [3] (read-out: MES SA DX, IC50 Value in nM, Table 2, 72 hours, CellTiter-Glo) it was 1.29 nM.
In the case of `COC(=O)C12CC(NC(=O)c3csc([C@@H](C[C@H](C(C)C)N(C)C(=O)[C@@H](NC(=O)[C@H]4CCCCN4C)C4CC4)OC(C)=O)n3)(C1)C2` [Tb100, Methyl 3-{[(2-{1-acetoxy-3-[(cyclopropyl{[(1-methylpiperidin-2-yl)carbonyl]amino}acetyl)(methyl)-amino]-4-methylpentyl}-1,3-thiazol-4-yl)carbonyl]amino}bicyclo[1.1.1]pentane-1-carboxylate], the IC50 is 15.2 nM in assay [1] (setting [5]), 16.5 nM in assay [2] (setting [7]) and over 1000 nM in assay [3] (setting [9]).
`CC(=O)O[C@H](CC(C(C)C)N(C)C(=O)[C@@H](NC(=O)[C@H]1CCCCN1C)C(C)C)c1nc(C(=O)NC(Cc2ccccc2)CC(C)C(=O)O)c(CCO)s1` (stereo in doubt) [Tb113, (2R,4S)-4-[({2-[(1R,3S)-1-Acetoxy-4-methyl-3-{methyl[(2S)-3-methyl-2-{[(1-methylpiperidin-2-yl)-carbonyl]amino}butanoyl]amino}pentyl]-5-(2-hydroxyethyl)-1,3-thiazol-4-yl}carbonyl)amino]-2-methyl-5-phenylpentanoic acid]: the IC50 in assay [1] (setting [5]) was 5.79 nM; in assay [2] (setting [7]), 0.315 nM; in assay [3] (setting [9]), over 400 nM.
With `CCOC(=O)[C@@H](C)CC(Cc1ccccc1)NC(=O)c1nc([C@@H](C[C@H](C(C)C)N(C)C(=O)[C@@H](NC(=O)[C@H]2CCCCN2C)C(C)C)OC(C)=O)sc1CCOCc1ccccc1` (stereo in doubt) [Tb110, Ethyl (2S,4S)-4-[({2-[(1R,3R)-1-acetoxy-4-methyl-3-{methyl[(2S)-3-methyl-2-{[(1-methylpiperidin-2-yl)carbonyl]amino}butanoyl]amino}pentyl]-5-[2-(benzyloxy)ethyl]-1,3-thiazol-4-yl}carbonyl)-amino]-2-methyl-5-phenylpentanoate], the IC50 is 3.09 nM in assay [1] (setting [5]), 1.87 nM in assay [2] (setting [7]) and over 400 nM in assay [3] (setting [9]).
Take `COC(=O)[C@H](C[C@H](Cc1ccccc1)NC(=O)c1csc([C@@H](C[C@H](C(C)C)N(C)C(=O)[C@@H](NC(=O)[C@H]2CCCCN2C)C(C)C)OC(C)=O)n1)N(C)C` [Tb117, Methyl (2S)-4-{[(2-{1-acetoxy-4-methyl-3-[methyl(3-methyl-2-{[(1-methylpiperidin-2-yl)carbonyl]-amino}butanoyl)amino]pentyl}-1,3-thiazol-4-yl)carbonyl]amino}-2-(dimethylamino)-5-phenylpentanoate]: the IC50 was found to be 0.099 nM in assay [1] (setting [4]); 0.099 nM in assay [1] (setting [5]); 0.059 nM in assay [2] (setting [6]); 0.059 nM in assay [2] (setting [7]); 4.63 nM in assay [3] (setting [8]); 4.63 nM in assay [3] (setting [9]).
`CC(C)[C@@H](C[C@@H](O)c1nc(C(=O)N[C@@H](Cc2ccccc2)C[C@H](C)C(=O)O)cs1)N(C)C(=O)[C@H](CC(F)(F)F)NC(=O)[C@H]1CCCCN1C` [Tb83, (2S,4R)-4-[({2-[(1R,3R)-1-Hydroxy-4-methyl-3-{methyl[(2S)-4,4,4-trifluoro-2-({[(2R)-1-methyl-piperidin-2-yl]carbonyl}amino)butanoyl]amino}pentyl]-1,3-thiazol-4-yl}carbonyl)amino]-2-methyl-5-phenylpentanoic acid]: the IC50 in assay [1] (setting [5]), in assay [2] (setting [7]) and in assay [3] (setting [9]) was over 1000 nM in each case.

For the origin of these results see patent publication US11274124B2, “Tubulysin analogues as anticancer agents and payloads for antibody-drug conjugates and methods of treatment therewith” (William Marsh Rice University, priority 2017, dated 2022).
